The source of these data is BindingDB's records for doi:10.1021/jm00089a012 (Merck Sharp and Dohme Research Laboratories, 1992).

In general, IC50 refers to the midpoint of a concentration-inhibition curve. Lower therefore signals higher potency.

A short description of the test: In vitro for the binding affinity against sigma receptor by using [3H]DTG as radioligand in guinea pig cerebellum.
`c1ccc2c(c1)CC[C@H]1CN(CC3CC3)CC[C@@H]21` registered an IC50 of 2.5 nM. As for `CN1CC[C@@H]2c3ccccc3CC[C@H]2C1`, the IC50 was 447 nM. In turn, `c1coc(CN2CC[C@H]3c4ccccc4CC[C@H]3C2)c1` registered an IC50 of 6.6 nM.

Compound `CCCCN1CCC2c3ccccc3CC2C1` (centres undefined) yielded an IC50 of 11 nM. Then `O=[N+]([O-])c1ccc(CN2CC[C@H]3c4ccccc4CC[C@H]3C2)cc1`, with 8.7 nM; and `c1ccc2c(c1)CC[C@H]1CN(C34C[C@H]5C[C@@H](C3)C[C@@H](C4)C5)CC[C@@H]21`, with 2.3 nM. The same measure for `CCCN1CC[C@H]2c3ccccc3CC[C@H]2C1`: 2.6 nM. The same measure for `Clc1ccc(CN2CC[C@H]3c4ccccc4CC[C@H]3C2)cc1`: 4.7 nM.

In the case of `CCCCN1CC[C@H]2c3ccccc3CC[C@H]2C1`, the IC50 amounted to 6.3 nM. The compound `CCCCN1CC[C@@H]2c3ccccc3CC[C@H]2C1` returned an IC50 of 3.1 nM. This IC50 is about 2-fold lower than that of the compound before. In turn, `c1ccc2c(c1)CC[C@H]1CN(Cc3ccc4ccccc4c3)CC[C@@H]21` came in with an IC50 of 81 nM.

`c1ccc(CCCN2CC[C@H]3c4ccccc4CC[C@H]3C2)cc1` displayed an IC50 of 4.3 nM. This IC50 lies about 19-fold lower than the previous one. The same measure for `CCCCN1CCC2c3ccccc3CCCC2C1` (centres undefined): 2.1 nM. For `c1ccc(CCN2CC[C@H]3c4ccccc4CC[C@H]3C2)cc1`, the IC50 stood at 0.324 nM.

The compound `C=CCN1CC[C@H]2c3ccccc3CC[C@H]2C1` registered a 50% inhibitory concentration (IC50) of 4.6 nM. The same measure for `CCCCN1CC[C@H]2c3cc(C)cc(C)c3CC[C@H]2C1`: 2 nM; for `c1ccc2c(c1)CC[C@H]1CN(C3CCCCC3)CC[C@@H]21`: 0.251 nM.

Take `CN1CC[C@H]2c3ccccc3CC[C@H]2C1`: the IC50 was 339 nM. Compared with the last compound, the IC50 is about 1400-fold higher. Regarding `c1ccc2c(c1)CC[C@H]1CN(C3[C@H]4C[C@@H]5C[C@@H](C[C@H]3C5)C4)CC[C@@H]21` (some centres undefined), the IC50 was 2.2 nM. This IC50 lies about 150-fold lower than the previous one. Then `c1ccc(CN2CC[C@H]3c4ccccc4CC[C@H]3C2)nc1`, with 17 nM. `COc1ccc(CN2CC[C@H]3c4ccccc4CC[C@H]3C2)cc1` registered an IC50 of 2 nM.

The compound `CCCCN1CCC2=C(Cc3ccccc32)C1` gave an IC50 of 1.9 nM. The IC50 values of the last two compounds are within 1.5-fold of each other. With `c1csc(CN2CC[C@H]3c4ccccc4CC[C@H]3C2)c1`, the IC50 was found to be 7.1 nM. Against the preceding compound, the IC50 is about 3.7-fold higher. In turn, `CCCN1CCC2=C(CCc3ccccc32)C1` yielded an IC50 of 21 nM.
